Measurements from US11220509B2, “Substituted imidazo[1,2-c]pyrimidines as PRC2 inhibitors” (Mirati Therapeutics, Inc., priority 2018, dated 2022).
Where two headings read alike, the source gives them in different places.

How the values were obtained:
[1] = target: purified human, His-tagged PRC2 complex (Homo sapiens (Human), UniProt O75530); assay: Hot Spot HMT assay: inhibition of PRC2 enzymatic activity (transfer of tritiated methyl from SAM to core histone H3); assay type: biochemical; conditions: 10 nM PRC2 complex, 0.05 mg/ml core histone H3, 1 uM 3H-SAM, 1 hr at 30° C.; read-out: IC50, Inhibition of PRC2-mediated Enzymatic Activity
Sequence of purified human, His-tagged PRC2 complex (Q15910 whole entry): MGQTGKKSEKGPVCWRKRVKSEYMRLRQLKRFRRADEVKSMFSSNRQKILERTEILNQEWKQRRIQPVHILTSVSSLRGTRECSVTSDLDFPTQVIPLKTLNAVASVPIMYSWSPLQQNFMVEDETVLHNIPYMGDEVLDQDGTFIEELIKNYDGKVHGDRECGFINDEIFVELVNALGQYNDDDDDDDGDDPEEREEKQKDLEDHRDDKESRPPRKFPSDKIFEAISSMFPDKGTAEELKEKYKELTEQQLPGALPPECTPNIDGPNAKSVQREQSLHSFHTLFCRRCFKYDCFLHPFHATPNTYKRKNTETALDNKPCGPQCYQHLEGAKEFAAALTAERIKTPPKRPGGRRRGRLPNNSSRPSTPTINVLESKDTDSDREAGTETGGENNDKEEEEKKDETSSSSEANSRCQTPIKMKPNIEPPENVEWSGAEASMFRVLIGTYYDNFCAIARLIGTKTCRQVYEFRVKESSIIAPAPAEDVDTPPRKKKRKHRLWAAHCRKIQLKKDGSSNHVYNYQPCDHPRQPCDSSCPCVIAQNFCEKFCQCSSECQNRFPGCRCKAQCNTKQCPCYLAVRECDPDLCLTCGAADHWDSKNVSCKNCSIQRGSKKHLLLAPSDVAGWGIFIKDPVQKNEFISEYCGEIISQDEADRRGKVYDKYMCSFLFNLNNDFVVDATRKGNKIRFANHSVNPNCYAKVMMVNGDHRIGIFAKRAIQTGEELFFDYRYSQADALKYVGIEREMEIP
Sequence of purified human, His-tagged PRC2 complex (O75530 whole entry): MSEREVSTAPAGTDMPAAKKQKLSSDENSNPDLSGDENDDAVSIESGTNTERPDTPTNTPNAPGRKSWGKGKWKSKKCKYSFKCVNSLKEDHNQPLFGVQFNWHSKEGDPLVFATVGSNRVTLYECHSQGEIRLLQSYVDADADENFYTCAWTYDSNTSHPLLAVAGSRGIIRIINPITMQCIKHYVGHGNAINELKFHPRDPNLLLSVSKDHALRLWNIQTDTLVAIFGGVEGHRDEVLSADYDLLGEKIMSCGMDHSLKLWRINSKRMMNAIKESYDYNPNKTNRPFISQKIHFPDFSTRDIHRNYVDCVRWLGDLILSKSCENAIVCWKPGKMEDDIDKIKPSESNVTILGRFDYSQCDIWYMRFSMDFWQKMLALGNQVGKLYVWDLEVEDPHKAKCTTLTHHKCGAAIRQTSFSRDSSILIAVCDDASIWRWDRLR
Sequence of purified human, His-tagged PRC2 complex (Q15022 whole entry partner): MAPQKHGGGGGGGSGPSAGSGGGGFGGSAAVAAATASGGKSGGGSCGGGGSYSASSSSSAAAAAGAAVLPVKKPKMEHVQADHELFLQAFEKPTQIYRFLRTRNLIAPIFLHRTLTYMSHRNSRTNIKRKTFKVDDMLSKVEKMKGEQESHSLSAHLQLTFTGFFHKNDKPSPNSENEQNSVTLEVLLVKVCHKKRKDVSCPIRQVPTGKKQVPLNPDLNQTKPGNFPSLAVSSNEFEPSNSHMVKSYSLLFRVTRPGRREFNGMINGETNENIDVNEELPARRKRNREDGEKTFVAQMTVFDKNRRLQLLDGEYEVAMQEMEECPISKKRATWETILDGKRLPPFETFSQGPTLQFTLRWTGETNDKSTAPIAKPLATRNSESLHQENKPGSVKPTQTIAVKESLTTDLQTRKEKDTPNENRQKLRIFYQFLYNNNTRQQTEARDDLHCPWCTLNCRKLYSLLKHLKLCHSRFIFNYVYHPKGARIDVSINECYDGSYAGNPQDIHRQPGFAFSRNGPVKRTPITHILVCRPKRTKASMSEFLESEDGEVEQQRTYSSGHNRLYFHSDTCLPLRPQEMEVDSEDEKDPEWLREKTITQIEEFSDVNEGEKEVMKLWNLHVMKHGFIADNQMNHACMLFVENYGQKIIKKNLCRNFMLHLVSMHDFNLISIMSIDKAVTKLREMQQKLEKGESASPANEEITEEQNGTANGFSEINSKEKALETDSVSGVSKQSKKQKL
Sequence of purified human, His-tagged PRC2 complex (Q6ZN18 whole entry partner): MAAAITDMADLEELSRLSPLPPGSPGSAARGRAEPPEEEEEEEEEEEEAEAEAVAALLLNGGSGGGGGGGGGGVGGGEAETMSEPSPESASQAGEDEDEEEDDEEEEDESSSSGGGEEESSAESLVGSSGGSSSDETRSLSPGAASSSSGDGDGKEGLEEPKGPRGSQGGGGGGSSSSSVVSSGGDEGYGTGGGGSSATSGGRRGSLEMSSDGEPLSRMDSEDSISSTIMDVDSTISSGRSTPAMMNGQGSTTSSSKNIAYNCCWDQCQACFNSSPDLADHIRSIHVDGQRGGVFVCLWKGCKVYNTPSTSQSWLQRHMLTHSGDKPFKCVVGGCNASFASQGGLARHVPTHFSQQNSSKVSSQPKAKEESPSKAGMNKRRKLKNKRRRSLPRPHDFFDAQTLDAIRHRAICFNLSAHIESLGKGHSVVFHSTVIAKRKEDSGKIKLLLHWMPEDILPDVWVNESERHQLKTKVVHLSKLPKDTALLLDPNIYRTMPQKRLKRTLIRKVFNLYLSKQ
Sequence of purified human, His-tagged PRC2 complex (Q09028 whole entry partner): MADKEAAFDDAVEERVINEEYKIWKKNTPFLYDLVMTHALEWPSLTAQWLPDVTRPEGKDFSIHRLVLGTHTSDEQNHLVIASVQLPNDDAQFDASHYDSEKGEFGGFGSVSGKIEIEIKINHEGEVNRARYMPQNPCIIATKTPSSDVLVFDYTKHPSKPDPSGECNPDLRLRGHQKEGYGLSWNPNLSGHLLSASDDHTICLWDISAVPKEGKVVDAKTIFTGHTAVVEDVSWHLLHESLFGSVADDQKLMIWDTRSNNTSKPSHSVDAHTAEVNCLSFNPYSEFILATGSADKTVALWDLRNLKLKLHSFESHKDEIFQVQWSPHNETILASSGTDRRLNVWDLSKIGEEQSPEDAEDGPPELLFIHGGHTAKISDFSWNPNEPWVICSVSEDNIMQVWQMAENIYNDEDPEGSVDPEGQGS
From the text: The assay uses purified human, His-tagged PRC2 complex, including N-terminal His-tagged EZH2 enzyme. N-terminal Flag-tagged embryonic ectoderm development protein (EED), N-terminal His-tagged suppressor of zeste 12 (SUZ12), N-terminal His-tagged AEBP2, and N-terminal His-tagged RbAp48. In this assay, the transfer of the tritiated methyl group from radiolabeled S-adenosyl methionine (SAM) to purified core histone protein by EZH2 is quantitated after filtration to determine the activity of the core PRC2 complex in the presence and absence of compound.
The initial starting concentration for the serial dilutions of each compound was 1.0 μM. […] SAH (S-(5-adenosyl)-L-homocysteine) was used as a positive control for assay validation.
An aliquot of each serial dilution of test compound was added to deep 384 well plate using Acoustic Technology instrument (Echo 550, LabCyte) containing reaction buffer (50 mM Tris-HCl (pH 8)), 0.01% Brij35, 1 mM EDTA, 1 mM DTT, 1 mM PMSF and 1% DMSO), 10 nM purified PRC2 complex and 0.05 mg/ml core histone H3 in a 5 μl volume. The reaction was mixed gently and then pre-incubated for 20 min at 30° C. The enzymatic reaction was initiated by adding 1 uM S-Adenosyl-L-[methyl-^3H]methionine and incubated for 1 hr at 30° C. After 1 hr, the reaction product was detected using a filter binding method and the amount of tritiated H3 core histone was quantitated using a scintillation counter. […] Key: A=<100 nM; B=>100 nM-<500 nM; and C=>500 nM.

[2] = system: Karpas 422 cells expressing mutant EZH2 (Y641N); assay: Karpas 422 cell viability, CTG (Cell Titre Glo) assay; assay type: cell-based, human; conditions: Day 4, 7 or 11 measured, time point of the table not stated, read-out: IC50 (nM), Inhibiting Proliferation of Cells Expressing an Activating Mutant Form of EZH2
Experimental: Karpas 422 cell line is a human B cell non-Hodgkin's lymphoma cell line established from a patient having DLBCL. This EZH2 heterozygotic cell line expresses a mutant form of EZH2 enzyme (Y641N) that increases histone H3 methylation and this mutation has been implicated in the tumorgenesis of lymphomas, such as DLBCL.
Karpas 422 cells (PHE cat no., 06101702) were cultured in RPMI medium supplemented with 20% fetal bovine serum and 1% penicillin/l % streptomycin and plated at a density of 1000 cells/90 μl/well in 96 well white assay plates. A dose response curve for compounds of the present invention was determined by adding a 10 μl aliquot of stock solutions of varying concentrations of compounds to the same medium in each well, over a concentration range of 10 μM using 3-fold dilutions to a final concentration of 1.5 nM. The plates were incubated at 37° C. for predetermined time periods, Day 4, Day 7, or Day 11, and the viability of the cells was measured using a CTG assay kit (Cell Titre Glo; Promega cat. no G7573) on Day 4 and Day 7 in accordance with the manufacturer's instructions.
For the viability assay for the Day 11 plates, the plates were subjected to centrifugation at 1100 rpm for five minutes on Day 7 and the supernatant was removed by aspiration. The cells were resuspended in 90 μl aliquot of the appropriate growth medium lacking the compound followed by addition of 10 μl of a 10× stock of the same compound at the same concentration. The viability of the Day 11 cells was measured using the CTG assay kit described above in accordance with the manufacturer's instructions. The IC50 values for each compound at each predetermined time point were calculated using Graph pad PRISM software and the results are shown in Table 15. A=≤250 nM; B=<250 nM-≤500 nM; and C=>500 nM.

[3] = system: histone H3 Lys27 trimethylation in Pfeiffer cells expressing mutant EZH2 (A677G); assay: Tri-Methyl Histone H3 (Lys 27) sandwich ELISA in Pfeiffer cells; assay type: cell-based; conditions: Homo sapiens, 96 hours incubation, read-out: IC50 (nM), Inhibition of EZH2-mediated Histone H3 Trimethylation
From the text: The Pfeiffer cell line was established from a […] from a patient having metastatic diffuse large B-cell lymphoma (DLBCL). This cell line expresses a mutant form of the EZH2 enzyme (A677G) that results in enhanced EZH2 activity leading to increased methylation of histone H3 Lys27. Increased trimethylation of histone H3 Lys27 is believed to be implicated in tumorgenesis and poor clinical prognosis in lymphomas (McCabe et al., (2012) Nature 492:108-112).
Inhibition of PRC2-mediated histone H3 methylation by compounds of Formula (I) was measured by ELISA using a Tri-Methyl Histone H3 (Lys 27) Sandwich ELISA Kit (Cell Signaling Tech #7866C) in accordance with the manufacturer's instructions. Briefly, Pfeiffer cells were cultured in RPMI medium supplemented with 10% fetal bovine serum and 1% penicillin and 1% streptoncin in 96 well culture plates at 37° C. to a density of 8000 cells/90 μl/well and the cells were harvested. A series of 3-fold serial dilutions of each test compound of Formula (I) were prepared in RPMI medium and added to the cells at final concentrations ranging from 1 μM to 0.15 nM. The plates were incubated at 37° C. for 96 hours.
After incubation, the cells were pelleted by centrifugation in a pre-cooled 4° C. rotor at 1,100 rpm for 10 min and the supernatant was removed by aspiration. The cell pellet was resuspended in 55 μl of Lysis Buffer (0.4M HCl) and incubated on ice with periodic shaking for 30 minutes. The lysed cells were subjected to centrifugation at 4,200 rpm for 10 min at 4° C. and the supernatant containing acid-soluble proteins was collected and the remainder discarded. The acid-soluble proteins were brought to a neutral pH by the addition of 20 μl of Neutralization Buffer (1 M Sodium phosphate, dibasic (pH 12.5), 2.5 mM DTT and 1 mM PMSF) and the neutralized lysates were analyzed by ELISA.
A 65 μl aliquot of each cell lysate was added to a well of a microwell strip, the microwells were sealed using tape and incubated either at 37° C. for two hours or at 4° C. overnight. After incubation, the tape was removed at the microwells were washed four times using 200 μl of 1× Wash Buffer. To each washed microwell, a 100 μl aliquot of an anti-trimethyl histone H3 Lys27 Detection Antibody solution was added and the microwells were incubated at 37° C. for one hour. The Detection Antibody solution was removed by aspiration and the wells were washed four times each using 200 μl of 1× Wash Buffer.
A 100 μl aliquot of an HRP-linked secondary antibody was added to each well, the wells were sealed with tape and incubated at 37° C. for 30 min. The HRP-linked secondary antibody solution was removed by aspiration and the wells were washed four times using 200 μl of 1× Wash Buffer. A 100 μl aliquot of a TMB substrate was added to each well, the wells were sealed with tape and incubated at 37° C. for 10 min or 25° C. for 30 min. The reaction was stopped by the addition of 100 μl aliquot of a STOP solution and the plate was shaken briefly. The degree of histone H3 trimethylation was determined using a spectrophotometric readout by measuring the absorbance at 450 nm and then calculating the amount of trimethylated histone H3. A=≤100 nM; B=>100 nM-≤500 nM; C=>500 nM and N.D.=not determined.

Compound	IC50 [2] [nM]	IC50 [3] [nM]	IC50 [1] [nM]	IC50 ([2]; Homo sapiens, 96 h) [nM]
Cc1cc(-c2cnc(NCc3c(F)ccc4occc34)n3cc(C#N)nc23)n(C)n1 [Example 28]			< 100	250 to 500
Cc1cc(-c2cnc(NCc3c(F)ccc4c3OCO4)n3cc(C#N)nc23)n(C)n1 [Example 228, 8-(1,3-dimethyl-1H-pyrazol-5-yl)-5-(((5-fluorobenzo[d][1,3]dioxol-4-yl)methyl)amino)imidazo[1,2-c]pyrimidine-2-carbonitrile]		100 to 500	100 to 500	≤ 250
Cc1nc(CN(C)C)ccc1-c1cnc(NCc2c(F)ccc3c2CCO3)n2cc(C#N)nc12 [Example 152]	≤ 250			
N#Cc1cn2c(NCc3c(F)ccc4c3CCO4)ncc(-c3cnc(C4CC4)nc3)c2n1 [Example 70]		< 100	< 100	≤ 250
Cn1nc(C(=O)O)cc1-c1cnc(NCc2c(F)ccc3c2CCO3)n2cc(C#N)nc12 [Example 157, 5-(2-cyano-5-(((5-fluoro-2,3-dihydrobenzofuran-4-yl)methyl)amino)imidazo[1,2-c]pyrimidin-8-yl)-1-methyl-1H-pyrazole-3-carboxylic acid]		< 100		≤ 250

The next lines start with results.

IC50 [2] [nM]	IC50 [3] [nM]	Compound	IC50 [1] [nM]	IC50 ([2]; Homo sapiens, 96 h) [nM]
250 to 500		CN(C)C(=O)c1cc(-c2cnc(NCc3c(F)ccc4c3CCO4)n3cc(C#N)nc23)n(C)n1 [Example 170, 5-(2-cyano-5-(((5-fluoro-2,3-dihydrobenzofuran-4-yl)methyl)amino)imidazo[1,2-c]pyrimidin-8-yl)-N,N,1-trimethyl-1H-pyrazole-3-carboxamide]		
	100 to 500	Cc1cc(-c2cnc(NCc3c(F)ccc4c3CCO4)n3cc(C#N)nc23)ccn1 [Example 178, 5-(((5-fluoro-2,3-dihydrobenzofuran-4-yl)methyl)amino)-8-(2-methylpyridin-4-yl)imidazo[1,2-c]pyrimidine-2-carbonitrile]	100 to 500	≤ 250
	100 to 500	[2H]C([2H])(Nc1ncc(-c2ccc(CN(C)C)cc2)c2nc(C#N)cn12)c1c(F)ccc2c1CCO2 [Example 165, 8-(4-((dimethylamino)methyl)phenyl)-5-(((5-fluoro-2,3-dihydrobenzofuran-4-yl)methyl-d2)amino)imidazo[1,2-c]pyrimidine-2-carbonitrile]		≤ 250
